Experiments:
immunopanned RGCs = test: Survival of immunopanned primary RGCs in culture; type: cell-based, mice; conditions: for Neuroprotective (survival-promoting) activity on primary RGCs in culture: increasing doses, 72 hours in culture; for Toxicity in primary RGC culture: nanomolar doses
Protocol: All animal use was in accordance with ARVO Statement for the Use of Animals, and all the experimental procedures were performed in compliance with animal protocols approved by the IACUC at Johns Hopkins University. Retinas were isolated from postnatal 0-5 day mice and dissociated with papain. Microglia was immunodepleted with anti-CD11b conjugated Dynabeads. The suspension of retinal cells were immunopanned on plates pre-conjugated with anti-Thy1.2 antibody (Serotec, MCA028) and anti-mouse IgM at room temperature (RT). After washing, RGCs were released from the plate by a cell lifter, counted, and seeded at a density of 10,000 per well in 96-well plates in the media composed of Neurobasal, B27, N2 supplement, L-glutamine, and penicillin/streptomycin. […] Images were taken from portions of each well with Cellomics Kinetscan, and cell survival was quantified and calculated with the algorithms in Cellomics Neuroprofiling package. As indicated, RGC viability was alternatively measured by CellTiter-Glo luminescence (Promega).
For siRNA-based screening, the siRNAs from the Sigma Mission Mouse Kinome library were complexed with NeuroMag (Oz Biosciences) at a final concentration of 20 nM. […] Confirmatory siRNAs were obtained from both Dharmacon and Ambion. […] RGCs were cultured for 48 h, and cell viability was analyzed on a plate reader (ViewLux, Perkin Elmer) using the bioluminescent CellTiterGlo (Promega) assay. Concentration response curves were created using CurveFit (NIH NCATS).

optic nerve axons = test: Rat laser-induced ocular hypertension (glaucoma model); type: in vivo, Wistar rats; conditions: for Neuroprotection in the glaucoma model: intravitreal PLGA microspheres / slow release formulation
Protocol: (§1) 6-week old male Wistar rats were anesthetized with ketamine/xylazine. A partial periotomy was made to expose the sclera. The injection site was approximately 1 mm posterior to the ora serrata, and the injection glass pipet was angled towards the optic disc in order to avoid lens injury. 5 μL (10 μg) of PLGA microspheres were injected with a glass pipet and Hamilton syringe.
Intraocular pressure (IOP) was unilaterally elevated by laser treatment of the trabecular meshwork as previously described^7. Briefly, 6-week old Wistar male rats were anesthetized with ketamine/xylazine. On two consecutive weeks, 40-50 532 nm diode laser spots were applied to the prelimbal region (50 μm diameter, 600 mW power and 0.6 seconds duration). Under anesthesia, the IOP of laser-treated and fellow eyes was measured with TonoLab one and three days after laser treatment. Four weeks following laser treatment, rats were perfused with 4% paraformaldehyde in phosphate buffer. Optic nerves were isolated, postfixed with 1% osmium tetroxide, embedded in epoxy resin and stained with 1% toluidine blue. Images from 10 random and nonoverlapping fields were taken with 100× oil phase contrast objective. The area of entire optic nerve cross-sections were imaged with 10× magnification, and used with axon counts from the 10 field to derive axon counts per nerve. The laser treatment and acquisition of optic nerve images were performed in a masked fashion.

[1] = Solubility of sunitinib in aqueous solution; type: physicochemical
RGCs [2] = test: Whole-cell patch-clamp recordings from RGCs at two weeks in culture
Description: Recordings were made by using the whole-cell patch-clamp technique in both current- and voltage-clamp modes with an Axopatch 200B. Data were low-pass filtered at 1 kHz (Bessel) and sampled at 10 kHz. […] The recording pipette was filled with the following intracellular solution (in mM): 100 K-gluconate, 50 KCl, 20 HEPES, 10 EGTA, 5 MgCl2, 2 ATP, 0.1 GTP, pH adjusted to 7.33 with KOH. The cells were continuously perfused with (in mM): 140 NaCl, 5 KCl, 1 MgCl2, 2.5 CaCl2), 10 glucose, 10 HEPES, pH 7.4 with NaOH.
To determine whether the RGCs that are kept alive for extended periods with DLK siRNA or sunitinib treatment remain functional, patch-clamp recordings were performed at two weeks in culture.

RGCs [3] = test: Rat optic nerve transection after intravitreal microspheres; type: in vivo, Wistar rats
Protocol: as §1
The optic nerve was exposed by a partial peritomy and intraorbital dissection of the extraocular muscles, and then transected with a 25-gauge needle. 4-Di-10-ASP were then applied to the proximal nerve stump. Care was taken to avoid vascular injury during the transection, and retinal perfusion was examined after nerve transection. Two weeks after transection, rats were sacrificed and enucleated. Retinas were flatmounted, imaged with confocal microscopy and the number of 4-Di-10-ASP-labeled cells with RGC morphology was quantified. Imaging and quantification of RGC survival were performed in a masked fashion.

kinases = conditions: at neuroprotective concentrations; cited from earlier work
DLK = DLK signaling in immunopanned RGCs (Western blot of phospho-MKK7 and phospho-JNK); type: cell-based, mice; conditions: same concentrations that increase RGC survival
Protocol: Western blots were performed according to the standard protocol. The following antibodies were from Cell Signaling Technology: Phospho-JNK, Thr183/Tyr185 (4671); JNK (9258); Phospho-MKK7 (4171), and MKK7 (4172). Monoclonal anti-alpha-tubulin antibody (T6074) was purchased from Sigma. DLK rabbit polyclonal was provided by S. Hirai.
To assess sunitinib's effect on DLK signaling in RGCs, immunopanned cells were cultured in the presence of increasing amounts of sunitinib.

For O=C(c1ccc(/C=C/c2n[nH]c3ccccc23)cc1)N1CCNCC1 [KW-2449], the “Neuroprotective (survival-promoting) activity on primary RGCs in culture” value (shortened to “Neuroprotective”) (immunopanned RGCs) was “promoted the survival of primary RGCs in culture”.
In the case of CCN(CC)CCNC(=O)c1c(C)[nH]c(/C=C2\C(=O)Nc3ccc(C(=O)N(C)C)cc32)c1C [SR8165], the “Neuroprotection in the glaucoma model” value (optic nerve axons) is reported as “conferred similar neuroprotection”, the DLK toxicity (immunopanned RGCs) is reported as “reduced DLK toxicity” and the “Neuroprotective” value (immunopanned RGCs) is reported as “greater efficacy in vitro”.
In the case of CN(C)S(=O)(=O)c1ccc2c(c1)/C(=C/c1cc3c([nH]1)CCCC3)C(=O)N2 [SU6656], the “Neuroprotective” value (immunopanned RGCs) is reported as “neuroprotective”.
With CCN(CC)CCNC(=O)c1c(C)[nH]c(/C=C2\C(=O)Nc3ccc(F)cc32)c1C [Sunitinib] the “Solubility in aqueous solution” value [1] was “pH dependent”, the “Functionality of RGCs kept alive for extended periods” value (RGCs [2]) was “conducted action potentials in response to depolarizing current and were responsive to exogenously applied glutamate” and the “Increase in surviving RGCs compared to control animals” value (RGCs [3]; intravitreal PLGA microspheres 7 days before transection, two weeks post-transection) was 3-4 fold. For the same compound, the “Reduction of optic nerve axon loss” value (optic nerve axons; intravitreal drug-eluting microspheres, one month, p<0.05) was 40%, the “Neuroprotective” value (immunopanned RGCs) was “dose-dependent increase in the viability of primary RGCs” and the “Number of kinases inhibited” value (kinases) was ~200 kinases. The “Phosphorylation of targets downstream of DLK, including MKK7 and JNK” value (DLK) was “decrease in the phosphorylation”.
In the case of COc1cc(N2CCC(N3CCN(C)CC3)CC2)ccc1Nc1ncc(Cl)c(Nc2ccccc2S(=O)(=O)C(C)C)n1 [TAE-684], the “Toxicity in primary RGC culture” value (immunopanned RGCs) is reported as “limited by toxicity at nanomolar doses”.
With Cc1cc(Nc2cc(N3CCN(C)CC3)nc(Sc3ccc(NC(=O)C4CC4)cc3)n2)[nH]n1 [Tozasertib, tozasertib] the “Protection of RGCs in the optic nerve transection model” value (RGCs [3]; intravitreal slow release formulation) was “protected RGCs”, the “Neuroprotection in the glaucoma model” value (optic nerve axons) was “protected RGCs” and the “Neuroprotective” value (immunopanned RGCs) was “promoted the survival of primary RGCs in culture”.
With C[C@@H](Oc1cc(-c2cnn(C3CCNCC3)c2)cnc1N)c1c(Cl)ccc(F)c1Cl [crizotinib] the “Neuroprotective” value (immunopanned RGCs) was “promoted the survival of primary RGCs in culture”.
With COc1cc2c(Oc3ccc(NC(=O)C4(C(=O)Nc5ccc(F)cc5)CC4)cc3F)ccnc2cc1OCCCN1CCOCC1 [foretinib] the “Neuroprotective” value (immunopanned RGCs) was “promoted the survival of primary RGCs in culture”.
For Cc1ccc(NC(=O)c2ccc(CN3CCN(C)CC3)cc2)cc1Nc1nccc(-c2cccnc2)n1 [imatinib], the “Neuroprotective” value (immunopanned RGCs) was “lack neuroprotective activity”.
In the case of CCOc1cc2ncc(C#N)c(Nc3ccc(OCc4ccccn4)c(Cl)c3)c2cc1NC(=O)/C=C/CN(C)C [neratinib], the “Toxicity in primary RGC culture” value (immunopanned RGCs) is reported as “limited by toxicity at nanomolar doses”.
With CNC(=O)c1cc(Oc2ccc(NC(=O)Nc3ccc(Cl)c(C(F)(F)F)c3)cc2)ccn1 [sorafenib] the “Neuroprotective” value (immunopanned RGCs) was “lack neuroprotective activity”.
With Clc1ccc(Nc2nnc(Cc3ccncc3)c3ccccc23)cc1 [vatalanib] the “Neuroprotective” value (immunopanned RGCs) was “lack neuroprotective activity”.
In the case of lestautinib, the “Neuroprotective” value (immunopanned RGCs) is reported as “promoted the survival of primary RGCs in culture”.

Reference: patent publication US11013719B2, “Sunitinib formulations and methods for use thereof in treatment of glaucoma” (The Johns Hopkins University, priority 2014, dated 2021)
